The source of these data is publication PMC10192418, “High-affinity peptides developed against calprotectin and their application as synthetic ligands in diagnostic assays” (Nature Communications, 2023).

Read-outs that look alike come from different tables or passages of the source. Numbered stars: 1 amine (or outer) side, 2 acyl side, 3 side chain; on linkers, the order of the positions; unused ones are H or OH. Bridge positions count the residues as written; N and C are the ends. Peptide text beside a SMILES is read from it. * marks the point of attachment. 5FAM = O=C1OC2(c3ccc(O)cc3Oc3cc(O)ccc32)c2ccc(C(=O)*)cc21; X1 = O=C(O)c1cc(C(=O)*)ccc1-c1c2ccc(=O)cc-2oc2cc(O)ccc12; CH2COCH2 = O=C(C[*:1])C[*:2]

Data set [1] deals with T1, calprotectin tetramer (recombinant B-RCAL, His6-linker-S100A9-linker-S100A8) (Homo sapiens, UniProt P05109).
T1 construct: we used the recombinant protein without removing the His-tag or cleaving the 8-amino acid linker between the two proteins; co-authors' company
T1 sequence (P05109 with tags, fused parts or gaps): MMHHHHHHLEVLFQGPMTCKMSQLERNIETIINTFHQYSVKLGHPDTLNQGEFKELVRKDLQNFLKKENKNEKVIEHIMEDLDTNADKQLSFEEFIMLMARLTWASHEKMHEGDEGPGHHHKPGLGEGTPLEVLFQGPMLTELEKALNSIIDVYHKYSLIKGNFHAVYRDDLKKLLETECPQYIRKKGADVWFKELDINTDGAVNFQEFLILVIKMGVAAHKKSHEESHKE
Description: Fluorescence polarization (FP) binding to recombinant calprotectin B-RCAL tetramer in presence of CaCl2. Conditions: for effect of mutation to alanine on binding: alanine scan of linear peptide 3, found via FP and SPR. On the procedure:
Calprotectin was serially diluted in 20 mM HEPES, 100 mM NaCl, 2 mM CaCl2, pH 7.5, and 1 mM DTT with 0.01% (v/v) Tween-20. Volumes of 16 μL of protein were added to 4 μL of fluorescent peptide (20 nM final concentration) in black 384-well microtiter plates. Fluorescence anisotropy was measured on a microwell plate reader (Infinite M200Pro, Tecan) with filters for excitation at 485 nm and emission at 535 nm. The dissociation constant (Kd) was calculated using a following Eq. (1) using Prism 5 software (GraphPad):1 A=Af+Ab−Af×LT+KD+PT−LT+KD+PT^2−4LTPT/2LT where A is anisotropy, Af and Ab are the anisotropy values for free and bound ligands, respectively. [L]T is the concentration of the total fluorescent ligand and [P]T the concentration of the protein.
For orientation: Fluorescence polarisation rises when a labelled molecule tumbles more slowly, as on binding a larger partner.

In data set [2] the target is T2, native calprotectin (tetramer, + CaCl2) (Homo sapiens, UniProt P05109+P06702).
T2 construct: Native calprotectin is derived from granulocytes; tissue gift from Thomas Vogl, Institute of Immunology, University of Muenster; host or cells: granulocytes
T2 sequence (P05109 1-93): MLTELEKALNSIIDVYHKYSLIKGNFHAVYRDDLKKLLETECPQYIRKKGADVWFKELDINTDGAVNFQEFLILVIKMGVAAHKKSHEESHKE
T2 sequence (P06702 2-114 limits assumed): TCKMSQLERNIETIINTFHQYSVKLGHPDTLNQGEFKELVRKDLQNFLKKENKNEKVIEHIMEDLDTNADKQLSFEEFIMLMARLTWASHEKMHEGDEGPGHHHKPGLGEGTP
In words: FP binding to native calprotectin derived from granulocytes. How it is done:
Fluorescence anisotropy was measured on a microwell plate reader (Infinite M200Pro, Tecan) with filters for excitation at 485 nm and emission at 535 nm. The dissociation constant (Kd) was calculated using a following Eq. […] [L]T is the concentration of the total fluorescent ligand and [P]T the concentration of the protein. Native calprotectin is derived from granulocytes (kind gift from Thomas Vogl, Institute of Immunology, University of Muenster) and was purified as described in ref. [34]. The size and concentration was analyzed and compared to B-RCAL by standard SDS-PAGE.

The target in data set [3] is T3, calprotectin tetramer (recombinant B-RCAL) (Homo sapiens, UniProt P05109).
T3 sequence (P05109 with tags, fused parts or gaps): T1 sequence (P05109 with tags, fused parts or gaps)
Description: biochemical.
Description: SPR measurements were performed using a Biacore^TM 8 K instrument (GE Healthcare) using the Biacore^TM 8 K Control software. Recombinant calprotectin (B-RCAL) was diluted with 10 mM acetate buffer (pH 5.0) to reach a concentration of 5 μg/mL and immobilized on a CM5 series S chip using the standard amine coupling method in running buffer (10 mM HEPES pH 7.4, 150 mM NaCl, 2 mM CaCl2, and 0.005% v/v Tween-20) at 25 °C and the following procedure. At a flow of 10 μL/min, the following solutions were injected: 420 s 0.4 M EDC, 0.1 M NHS; 100 to 200 s protein; 500 s 1 M ethanolamine-HCl pH 8.5. Typical immobilization levels were 3000 resonance units (RUs). A reference cell was treated in the same way but without the injection of protein. A single concentration for each peptide (500 nM) was injected in a running buffer containing 0.5% (v/v) DMSO to measure the binding level. For the measurement of binding kinetics and dissociation constants, five serial dilutions (threefold) of peptides were prepared in running buffer containing 0.5% (v/v) DMSO and analyzed in single cycle kinetics mode with the contact and dissociation times of 90 s and 120 s, respectively. Data were analyzed using Biacore^TM 8 K Evaluation software.

Data set [4] is described as follows: Methionine oxidation of peptide upon storage in solution. It is filed as physicochemical.
Data set [5] concerns the target T3, calprotectin tetramer (recombinant B-RCAL). In words: SPR binding level at a single peptide concentration (500 nM). More on the design: we used the recombinant protein without removing the His-tag or cleaving the 8-amino acid linker between the two proteins; co-authors' company. The following applies: peptides injected at 500 nM, single measurement. The source says: Typical immobilization levels were 3000 resonance units (RUs).
(SPR reads the build-up and loss of mass on a sensor chip optically.)

Where [6] appears, read: FP, alanine scan of linear peptide 3, 20 nM peptide, 2 mM CaCl2, one measurement, NB = non-binding.

For `CSCC[C@H](NC(=O)[C@@H]1CCCN1C(=O)[C@H](Cc1ccccc1)NC(=O)[C@H](C)NC(=O)[C@@H](NC(=O)[C@@H]1CSCC(=O)CSC[C@H](NC(=O)[C@H](CCCNC(=N)N)NC(=O)c2ccc3c(c2)C(=O)OC32c3ccc(O)cc3Oc3cc(O)ccc32)C(=O)N2CCC[C@H]2C(=O)N[C@@H](CCC(=O)O)C(=O)N1)C(C)C)C(=O)N[C@@H](Cc1ccccc1)C(=O)N[C@@H](CCC(N)=O)C(=O)N[C@H]1CSCC(=O)CSC[C@@H](C(=O)NCC(N)=O)NC(=O)[C@H](Cc2ccc(O)cc2)NC(=O)[C@H](Cc2c[nH]c3ccccc23)NC(=O)[C@H](Cc2c[nH]cn2)NC1=O` (single isomer, unassigned) [Peptide 3 Isomer 1], the Kd (usually a measure of binding affinity in units of concentration) in data set [1] came out at 24 ± 10 nM; in data set [2], 26 ± 2 nM; in data set [3] it was 51 nM.

With `CSCC[C@H](NC(=O)[C@@H]1CCCN1C(=O)[C@H](Cc1ccccc1)NC(=O)[C@H](C)NC(=O)[C@@H](NC(=O)[C@@H]1CSCC(=O)CSC[C@H](NC(=O)[C@H](CCCNC(=N)N)NC(=O)c2ccc(-c3c4ccc(=O)cc-4oc4cc(O)ccc34)c(C(=O)O)c2)C(=O)N2CCC[C@H]2C(=O)N[C@@H](CCC(=O)O)C(=O)N1)C(C)C)C(=O)N[C@@H](Cc1ccccc1)C(=O)N[C@@H](CCC(N)=O)C(=O)N[C@H]1CSCC(=O)CSC[C@@H](C(=O)NCC(N)=O)NC(=O)[C@H](Cc2ccc(O)cc2)NC(=O)[C@H](Cc2c[nH]c3ccccc23)NC(=O)[C@H](Cc2c[nH]cn2)NC1=O` [Peptide 3] (X1-RCPECVAFPMFQCHWYCG-NH2; linker 2-5, 13-17 via CH2COCH2), the dissociation constant Kd in data set [1] (FP, 20 nM peptide, 2 mM CaCl2, Rep 1) is 20 nM. Also, the “FP increase upon binding to calprotectin” value in data set [1] (FP, 2 mM CaCl2) is “around 50%”. Besides, the “oxidation upon storage in solution” value in data set [4] is reported as “a small quantity was oxidized”.

Consider `CSCC[C@H](NC(=O)[C@@H]1CCCN1C(=O)[C@H](C)NC(=O)[C@H](C)NC(=O)[C@@H](NC(=O)[C@H](CO)NC(=O)[C@H](CCC(=O)O)NC(=O)[C@@H]1CCCN1C(=O)[C@H](CO)NC(=O)[C@H](CCCNC(=N)N)NC(=O)c1ccc2c(c1)C(=O)OC21c2ccc(O)cc2Oc2cc(O)ccc21)C(C)C)C(=O)N[C@@H](Cc1ccccc1)C(=O)N[C@@H](CCC(N)=O)C(=O)N[C@@H](CO)C(=O)N[C@@H](Cc1c[nH]cn1)C(=O)N[C@@H](Cc1c[nH]c2ccccc12)C(=O)N[C@@H](Cc1ccc(O)cc1)C(=O)N[C@@H](CO)C(=O)NCC(N)=O` [Peptide F8A] (5FAM-RSPESVAAPMFQSHWYSG-NH2), for which the “effect of mutation to alanine on binding” value in data set [1] is given as “complete loss in binding”. The Response at binding in data set [5] was -0.0133 RU.

For `CSCC[C@H](NC(=O)[C@@H]1CCCN1C(=O)[C@H](Cc1ccccc1)NC(=O)[C@H](C)NC(=O)[C@@H](NC(=O)[C@H](CO)NC(=O)[C@H](CCC(=O)O)NC(=O)[C@@H]1CCCN1C(=O)[C@H](CO)NC(=O)[C@H](CCCNC(=N)N)NC(=O)c1ccc2c(c1)C(=O)OC21c2ccc(O)cc2Oc2cc(O)ccc21)C(C)C)C(=O)N[C@@H](C)C(=O)N[C@@H](CCC(N)=O)C(=O)N[C@@H](CO)C(=O)N[C@@H](Cc1c[nH]cn1)C(=O)N[C@@H](Cc1c[nH]c2ccccc12)C(=O)N[C@@H](Cc1ccc(O)cc1)C(=O)N[C@@H](CO)C(=O)NCC(N)=O` [Peptide F11A] (5FAM-RSPESVAFPMAQSHWYSG-NH2), the “effect of mutation to alanine on binding” value in data set [1] is “complete loss in binding”. In data set [5], the Response at binding was -1.75 RU.

Consider `CSCC[C@H](NC(=O)[C@@H]1CCCN1C(=O)[C@H](Cc1ccccc1)NC(=O)[C@H](C)NC(=O)[C@@H](NC(=O)[C@H](CO)NC(=O)[C@H](CCC(=O)O)NC(=O)[C@@H]1CCCN1C(=O)[C@H](CO)NC(=O)[C@H](CCCNC(=N)N)NC(=O)c1ccc2c(c1)C(=O)OC21c2ccc(O)cc2Oc2cc(O)ccc21)C(C)C)C(=O)N[C@@H](Cc1ccccc1)C(=O)N[C@@H](CCC(N)=O)C(=O)N[C@@H](CO)C(=O)N[C@@H](C)C(=O)N[C@@H](Cc1c[nH]c2ccccc12)C(=O)N[C@@H](Cc1ccc(O)cc1)C(=O)N[C@@H](CO)C(=O)NCC(N)=O` [Peptide H14A] (5FAM-RSPESVAFPMFQSAWYSG-NH2), for which the “effect of mutation to alanine on binding” value in data set [1] is on record as “complete loss in binding”. For the same compound, in data set [5], the Response at binding is given as 10 RU.

For the compound `CC(C)[C@H](NC(=O)[C@H](CO)NC(=O)[C@H](CCC(=O)O)NC(=O)[C@@H]1CCCN1C(=O)[C@H](CO)NC(=O)[C@H](CCCNC(=N)N)NC(=O)c1ccc2c(c1)C(=O)OC21c2ccc(O)cc2Oc2cc(O)ccc21)C(=O)N[C@@H](C)C(=O)N[C@@H](Cc1ccccc1)C(=O)N1CCC[C@H]1C(=O)N[C@@H](C)C(=O)N[C@@H](Cc1ccccc1)C(=O)N[C@@H](CCC(N)=O)C(=O)N[C@@H](CO)C(=O)N[C@@H](Cc1c[nH]cn1)C(=O)N[C@@H](Cc1c[nH]c2ccccc12)C(=O)N[C@@H](Cc1ccc(O)cc1)C(=O)N[C@@H](CO)C(=O)NCC(N)=O` [Peptide M10A] (5FAM-RSPESVAFPAFQSHWYSG-NH2), the “effect of mutation to alanine on binding” value in data set [1] is listed as “complete loss in binding”. In addition, the Response at binding in data set [5] is recorded as 7 RU.

Take `CSCC[C@H](NC(=O)[C@@H]1CCCN1C(=O)[C@H](Cc1ccccc1)NC(=O)[C@H](C)NC(=O)[C@H](C)NC(=O)[C@H](CO)NC(=O)[C@H](CCC(=O)O)NC(=O)[C@@H]1CCCN1C(=O)[C@H](CO)NC(=O)[C@H](CCCNC(=N)N)NC(=O)c1ccc2c(c1)C(=O)OC21c2ccc(O)cc2Oc2cc(O)ccc21)C(=O)N[C@@H](Cc1ccccc1)C(=O)N[C@@H](CCC(N)=O)C(=O)N[C@@H](CO)C(=O)N[C@@H](Cc1c[nH]cn1)C(=O)N[C@@H](Cc1c[nH]c2ccccc12)C(=O)N[C@@H](Cc1ccc(O)cc1)C(=O)N[C@@H](CO)C(=O)NCC(N)=O` [Peptide V6A] (5FAM-RSPESAAFPMFQSHWYSG-NH2): the Kd in data set [1] (setting [6]) amounted to 39 nM.

For the compound `CSCC[C@H](NC(=O)[C@@H]1CCCN1C(=O)[C@H](Cc1ccccc1)NC(=O)[C@H](C)NC(=O)[C@@H](NC(=O)[C@H](CO)NC(=O)[C@H](CCC(=O)O)NC(=O)[C@@H]1CCCN1C(=O)[C@H](CO)NC(=O)[C@H](CCCNC(=N)N)NC(=O)c1ccc2c(c1)C(=O)OC21c2ccc(O)cc2Oc2cc(O)ccc21)C(C)C)C(=O)N[C@@H](Cc1ccccc1)C(=O)N[C@@H](CCC(N)=O)C(=O)N[C@@H](CO)C(=O)N[C@@H](Cc1c[nH]cn1)C(=O)N[C@@H](C)C(=O)N[C@@H](Cc1ccc(O)cc1)C(=O)N[C@@H](CO)C(=O)NCC(N)=O` [Peptide W15A] (5FAM-RSPESVAFPMFQSHAYSG-NH2), the Kd in data set [1] (setting [6]) is 24 nM.

On to `CSCC[C@H](NC(=O)[C@@H]1CCCN1C(=O)[C@H](Cc1ccccc1)NC(=O)[C@H](C)NC(=O)[C@@H](NC(=O)[C@H](CO)NC(=O)[C@H](CCC(=O)O)NC(=O)[C@@H]1CCCN1C(=O)[C@H](CO)NC(=O)[C@H](CCCNC(=N)N)NC(=O)c1ccc2c(c1)C(=O)OC21c2ccc(O)cc2Oc2cc(O)ccc21)C(C)C)C(=O)N[C@@H](Cc1ccccc1)C(=O)N[C@@H](CCC(N)=O)C(=O)N[C@@H](CO)C(=O)N[C@@H](Cc1c[nH]cn1)C(=O)N[C@@H](Cc1c[nH]c2ccccc12)C(=O)N[C@@H](C)C(=O)N[C@@H](CO)C(=O)NCC(N)=O` [Peptide Y16A] (5FAM-RSPESVAFPMFQSHWASG-NH2), for which the “effect of mutation to alanine on binding” value in data set [1] is listed as “complete loss in binding”. The Response at binding in data set [5] is 6 RU.
